Experimental data published in patent US7396848B1, “Neurotrophin production/secretion promoting agent” (Takeda Pharmaceutical Company Limited, priority 2000, dated 2008).

Test system: BDNF
Test: BDNF production/secretion promoting activity in cultured Schwann cells (enzyme immunoassay of culture fluid)
Assay type: cell-based, SD rats
Settings: 24 hours, concentrations of 10^−4 M to 10^−8 M, result in words

Row | SMILES | BDNF production/secretion promoting activity
1 | COc1ccccc1OCCCc1oc(-n2ccnc2C)nc1-c1ccc(Cl)cc1 [Compound (1), 4-(4-chlorophenyl)-5-[3-(2-methoxyphenoxy)propyl]-2-(2-methyl-1-imidazolyl)oxazole] | excellent

Test system: NGF
Test: NGF production/secretion promoting activity in cultured Schwann cells (enzyme immunoassay of culture fluid)
Assay type: cell-based, SD rats
Settings: 24 hours, concentrations of 10^−4 M to 10^−8 M, result in words
Procedure: Schwann cells were prepared by subjecting the dorsal spinal root ganglion collected from 10 newborn SD rats to enzyme treatment using 0.25% trypsin containing 0.01% deoxyribonuclease (DNase, produced by Sigma), followed by cloning from the cell group obtained. […]
The culture fluid obtained in each run of Reference Example 1A was recovered and assayed for the neurotrophin content therein. […] After washing, 30 μl of 4-methylumbelliferyl-β-D-galactoside (produced by Sigma) (10 μg/μl) was added to the substrate, the reaction was allowed to proceed at room temperature for 4 hours and then terminated by addition of 130 μl of 0.1 M glycine-sodium hydroxide buffer (pH 10.3), and the fluorescent intensity of the 4-methylumbelliferone produced was determined (Ex: 360 nm; Em: 450 nm). The amount of NGF was calculated based on a standard curve and expressed in terms of relative multiplicity in relation to the amount of NGF (control) produced and secreted by cells treated in the same manner without adding the test compound. […]

Row | SMILES | NGF production/secretion promoting activity
2 | COc1ccccc1OCCCc1oc(-n2ccnc2C)nc1-c1ccc(Cl)cc1 [Compound (1), 4-(4-chlorophenyl)-5-[3-(2-methoxyphenoxy)propyl]-2-(2-methyl-1-imidazolyl)oxazole] | excellent

Test system: not given
Test: not given
Settings: not given

Row | SMILES | melting point [°C]
3 | CCOC(=O)CCCc1sc(N)nc1-c1ccc(Cl)cc1 [Example 22, ethyl 2-amino-4-(4-chlorophenyl)-5-thiazolebutanoate] | 114 to 115
4 | Cc1nccn1-c1nc(-c2ccc(Cl)cc2)c(CCCCO)s1 [Example 24, 4-(4-chlorophenyl)-2-(2-methyl-1-imidazolyl)-5-thiazolebutanol] | 98 to 99
5 | COc1ccccc1OCCCc1oc(N2CCOCC2)nc1-c1ccc(Cl)cc1 [Example 39, 4-(4-chlorophenyl)-2-(4-morpholinyl)-5-[3-(2-methoxyphenoxy)propyl]oxazole] | 81 to 82
6 | CCOC(=O)C1CCN(c2nc(-c3ccc(Cl)cc3)c(CCCOc3ccccc3OC)o2)CC1 [Example 40, ethyl N-[4-(4-chlorophenyl)-5-[3-(2-methoxyphenoxy)propyl]-2-oxazolyl]isonipecotate] | 80 to 81
7 | COc1ccccc1OCCCc1oc(-n2cnc(-c3ccccc3)c2-c2ccccc2)nc1-c1ccc(Cl)cc1 [Example 42, 4-(4-chlorophenyl)-2-(4,5-diphenyl-1-imidazolyl)-5-[3-(2-methoxyphenoxy)propyl]oxazole] | 118 to 119
8 | Cc1ccccc1OCCCc1oc(-n2ccnc2)nc1-c1ccc(Cl)cc1 [Example 55, 4-(4-chlorophenyl)-2-(1-imidazolyl)-5-[3-(2-methylphenoxy)propyl]oxazole] | 113 to 114
9 | CCc1nccn1-c1nc(-c2ccc(Cl)cc2)c(CCCOc2ccccc2C)o1 [Example 56, 4-(4-chlorophenyl)-2-(2-ethyl-1-imidazolyl)-5-[3-(2-methylphenoxy)propyl]oxazole] | 91 to 92
10 | CCc1nccn1-c1nc(-c2ccc(Cl)cc2)c(CCCOc2ccccc2OC)o1 [Example 57, 4-(4-chlorophenyl)-2-(2-ethyl-1-imidazolyl)-5-[3-(2-methoxyphenoxy)propyl]oxazole] | 78 to 79
11 | Cc1nccn1-c1nc(-c2ccc(Cl)cc2)c(CCCOc2ccccc2O)o1 [Example 61, 4-(4-chlorophenyl)-5-[3-(2-hydroxyphenoxy)propyl]-2-(2-methyl-1-imidazolyl)oxazole] | 110 to 111
12 | CCOC(=O)c1nccn1-c1nc(-c2ccc(Cl)cc2)c(CCCOc2ccccc2OC)o1 [Example 69, ethyl 1-[4-(4-chlorophenyl)-5-[3-(2-methoxyphenoxy)propyl]-2-oxazolyl]imidazole-2-carboxylate] | 90 to 91
13 | Cc1cc(C)n(-c2nc(-c3ccc(Cl)cc3)c(CCCOc3ccccc3C)o2)n1 [Example 72, 4-(4-chlorophenyl)-2-(3,5-dimethyl-1-pyrazolyl)-5-[3-(2-methylphenoxy)propyl]oxazole] | 103 to 104
14 | CCCc1nccn1-c1nc(-c2ccc(Cl)cc2)c(CCCOc2ccccc2OC)o1 [Example 83, 4-(4-chlorophenyl)-5-[3-(2-methoxyphenoxy)propyl]-2-(2-propyl-1-imidazolyl)oxazole] | 89 to 90
15 | CCCCCCCCCCCc1nccn1-c1nc(-c2ccc(Cl)cc2)c(CCCOc2ccccc2OC)o1 [Example 84, 4-(4-chlorophenyl)-5-[3-(2-methoxyphenoxy)propyl]-2-(2-undecyl-1-imidazolyl)oxazole] | 53 to 54
16 | Cc1nccn1-c1nc(-c2ccc(Cl)cc2)c(CCCOc2ccccc2CCCO)o1 [Example 93, 4-(4-chlorophenyl)-5-[3-(2-(3-hydroxypropyl)phenoxy)propyl]-2-(2-methyl-1-imidazolyl)oxazole] | 119 to 120
17 | Cc1nccn1-c1nc(-c2ccc(Cl)cc2)c(CCCOc2ccccc2CCC(=O)O)o1 [Example 94, 3-[2-[3-[4-(4-chlorophenyl)-2-(2-methyl-1-imidazolyl)-5-oxazolyl]propoxy]phenyl]propionic acid] | 184 to 185
18 | Cc1ccccc1OCCCc1sc(-n2ccnc2C)nc1-c1ccc(Cl)cc1 [Example 96, 4-(4-chlorophenyl)-2-(2-methyl-1-imidazolyl)-5-[3-(2-methylphenoxy)propyl]thiazole] | 112 to 113
19 | Cc1nccn1-c1nc(-c2ccc(Cl)s2)c(CCCCO)o1 [Example 99, 4-(5-chloro-2-thienyl)-2-(2-methyl-1-imidazolyl)-5-oxazolebutanol] | 77 to 79
20 | Cc1nccn1-c1nc(-c2ccc(F)cc2)c(CCCCO)o1 [Example 102, 4-(4-fluorophenyl)-2-(2-methyl-1-imidazolyl)-5-oxazolebutanol] | 97 to 98
21 | Cc1cccc(Cl)c1CCCOc1oc(-n2ccnc2C)nc1-c1ccc(Cl)cc1 [Example 109, 5-[3-(2-chloro-6-methylphenyl)propyloxy]-4-(4-chlorophenyl)-2-(2-methyl-1-imidazolyl)oxazole] | 115 to 116
22 | Cc1cc(O)ccc1OCCCc1oc(-n2ccnc2C)nc1-c1ccc(Cl)cc1 [Example 113, 4-[3-[4-(4-chlorophenyl)-2-(2-methyl-1-imidazolyl)-5-oxazolyl]propyloxy]-3-methylphenol] | 175 to 176
23 | COC(=O)CCc1oc(-n2ccnc2C)nc1-c1ccc(C(F)(F)F)cc1 [Example 116, methyl 2-(2-methyl-1-imidazolyl)-4-(4-trifluoromethylphenyl)-5-oxazolepropionate] | 94 to 95
24 | COC(=O)CCc1oc(-n2ccnc2C)nc1-c1ccc(Cl)c(Cl)c1 [Example 117, methyl 4-(3,4-dichlorophenyl)-2-(2-methyl-1-imidazolyl)-5-oxazolepropionate] | 116 to 117
25 | Cc1nccn1-c1nc(-c2ccc(C(F)(F)F)cc2)c(CCCO)o1 [Example 118, 2-(2-methyl-1-imidazolyl)-4-(4-trifluoromethylphenyl)-5-oxazolepropanol] | 127 to 129
26 | Cc1nccn1-c1nc(-c2ccc(Cl)c(Cl)c2)c(CCCO)o1 [Example 119, 4-(3,4-dichlorophenyl)-2-(2-methyl-1-imidazolyl)-5-oxazolepropanol] | 140 to 141
